Columns and labels:
hepatocyte apoptosis = assay: In vivo NIR imaging of fulminant hepatic failure (anti-Fas antibody); set-up: species or system mice; settings: liver region; 10 μg probe; 25 hrs after probe injection
Method: This model was used to compare LDH to Annexin V for near infrared (NIR) imaging of apoptosis. Alexa750-NHS was conjugated to Annexin V (Biovision) and chicken LDHB (XpressBio) at a labeling ratio of 2:1 per mole of protein based on prior optimization. A total of 10 male NCr nude mice were injected with 5 μg of anti-Fas antibody (Jo2, Pharmingen), and 10 animals were injected with 5 μg of an isotype-matched control antibody. Two hours later, mice were injected with 10 μg of either LDH-Alexa750 or Annexin V-Alexa750. Mice underwent NIR fluorescence imaging (IVIS Spectrum, Caliper) 25 hrs after probe injection (FIG. 8A). After spectral unmixing and background subtraction (Living Images software package), regions of interest were used to quantify fluorescence localized to the liver region (FIG. 8A), as indicated with arrowheads.

[1] = test system: Ku812-Luc+ (BCR-ABL+CML blast crisis) cells; assay: In vivo imaging of chemotherapy-induced apoptosis (AMN107); set-up: species or system mice; settings: 20 μg probe after 3 doses of AMN107
Method: Subcutaneous tumors were established using Ku812-Luc+ (BCR-ABL+CML blast crisis) cells in NCr nude mice. When tumors were ˜1 cm, mice underwent bioluminescence imaging (BLI) to determine baseline tumor burden, followed by treatment with either AMN107 (nilotinib) at 100 mg/kg intraperitoneally (IP), or with vehicle. After 3 doses, animals were injected with 20 μg of LDH-Alexa750. Fluorescence imaging (FL) was performed 24 and 48 hrs after probe injection (day 4 and 5 of treatment) and BLI was repeated on day 5 of treatment (FIG. 9A).

apoptotic cells [2] = assay: Homogeneous multiwell apoptosis assay in normal growth medium; format: cell-based; settings: e.g., RPMI with 10% FBS, flow cytometry or High-Content Microscopy
THP-1 cells = assay: Staining of THP-1 cells treated with HDAC inhibitor LAQ824; format: cell-based; settings: THP-1, LAQ824 50 nM, 18 hrs
Method: To correlate cLDHB staining with other measures of apoptosis, a fluorescent probe that binds to activated caspases (pan-caspase-FLICA, Immunochemistry Tech) was used. THP-1 cells were treated with the HDAC inhibitor LAQ824 (50 nM, 18 hrs) to induce apoptosis.
Similarly, we asked whether the […] proteins performed comparably to purified recombinant LDH.

[3] = test system: non-transformed rat cardiomyocytes; assay: Concordance of staining in doxorubicin-treated cardiomyocytes; format: cell-based; settings: apoptosis induced with doxorubicin
apoptotic cells [4] = assay: Staining requirements (temperature, calcium) of cLDHB and Annexin V; format: cell-based
Method: To determine if cLDHB is actively transported into cells, staining was performed at room temperature and at 4° C.
A major limitation of Annexin V staining is the requirement for supra-physiological concentrations of calcium (Tait, J. F., D. F. Gibson, and C. Smith, Anal Biochem, 2004. 329: 112-9). To determine whether cLDHB staining required calcium, Annexin V and cLDHB staining was performed in PBS (without calcium or magnesium) or in Annexin Binding Buffer (with 2.5 mM calcium).

[5] = test system: adherent and suspension cancer cell lines (e.g., HeLa, RS(4;11), THP-1, MDA-MB231); assay: Concordance of Annexin V and cLDHB staining across cancer cell lines; format: cell-based; settings: apoptosis induced by camptothecin, doxorubicin, HDAC inhibitors
HeLa cells = assay: FACS staining of camptothecin-treated apoptotic HeLa cells; format: cell-based
Method: HeLa cells (5×10^5 in 10 cm plates) maintained in DMEM with 10% FBS were contacted with 5 μM camptothecin to induce apoptosis. Cell staining by FITC-labeled Annexin V (Abcam, Cambridge, Mass.) or Cy5.5-labeled chicken LDH (1 μL) prepared as described in Example 1, was measured by fluorescence-activated cell sorting (FACS) analysis (with cells in annexin binding buffer (Abcam)) 12 h, 24 h, and 48 h later. Untreated HeLa cells served as negative controls.
Staining by Annexin V is known to require the presence of calcium. […] HeLa cells treated with camptothecin to induce apoptosis as in Example 9 were stained with FITC-labeled Annexin V (Abcam, Cambridge, Mass.) or Cy5.5-labeled chicken LDH in calcium-containing Annexin buffer or in calcium-free PBS. Stained cells were analyzed by FACS analysis as in Example 9.
HeLa cells (5×10^5 in 10 cm plates) maintained in DMEM with 10% FBS were contacted with 5 μM camptothecin to induce apoptosis. Cell staining was done in the media: (i) annexin buffer, (ii) DMEM supplemented with 1% FBS; (iii) DMEM supplemented with 2% FBS; (iii) DMEM supplemented with 5% FBS; (iv) DMEM supplemented with 10% FBS. For cell staining FITC-labeled Annexin V (Abcam, Cambridge, Mass.) or Cy5.5-labeled chicken LDH (1 μL) prepared as described in Example 1, was used to for FACS analysis (cells in annexin binding buffer (Abcam)) 48 h later. Untreated HeLa cells served as negative controls. […]

Substance	mean signal intensity (photons/sec/ROI) of anti-Fas antibody treated animals above IgG control antibody treated animals (hepatocyte apoptosis)	NIR fluorescence signal from the tumors in AMN107-treated animals compared to vehicle-treated controls [1]	staining / quantification of apoptosis with probe added directly to normal growth medium (apoptotic cells [2])	staining of live cells negative for FLICA staining (THP-1 cells)	concordance in staining with Annexin V [3]	staining at room temperature versus 4° C. (apoptotic cells [4])	staining in PBS (without calcium or magnesium) compared to Annexin Binding Buffer (2.5 mM calcium) (apoptotic cells [4])	concordance in staining with Annexin V [5]	change of staining with increasing amounts of FBS (FACS) (HeLa cells; HeLa treated with camptothecin)	stability of staining after washing (HeLa cells; washed with 6 changes of PBS)
LDH-Alexa750: chicken LDHB (XpressBio) conjugated to Alexa750-NHS at a labeling ratio of 2:1	4.2 fold	> 4 fold	–	–	–	–	–	–	–	–
cLDHB: chicken LDHB used as fluorescently labeled probe; fluorochrome not stated at the place	–	–	apoptosis can be quantified	negative	Concordant staining	Identical results	identical under both conditions	concordance in staining	no significant changes	entirely stable
